Experiments:
[1] = phase Ib, patients with chronic hepatitis B; cited from earlier work
[2] = Single dose PK study in male Wister-Han rats; assay type: in vivo; settings: male, Wister-Han, rat, plasma, po, 5 mg/kg, 5 mg/kg oral dosing of active form

- AUC(0-t) [2]: 0.316 µM·h
- Cmax [2]: 164 nM
- concentration at 0.25 h ([2]; 0.25 h): 56.3 nM
- concentration at 0.5 h ([2]; 0.5 h): 33.2 nM
- concentration at 1 h ([2]; 1 h): 83.4 nM
- concentration at 2 h ([2]; 2 h): 136 nM
- concentration at 4 h ([2]; 4 h): 16.7 nM
- concentration at 8 h ([2]; 8 h): 9.49 nM
SMILES: CCCCOc1nc(N)c2c(n1)N(Cc1cccc(CN3CCCC3)c1)CC(=O)N2 [GS9620, reference compound]
- ISG15 mRNA induction [1]: dose-dependent ISG15 mRNA induction
- safety and tolerability [1]: safe, well tolerated
